Measurements reported in the supplement of paper PMC4862054.
Values belong to the compound of their own block, whether it stands above or below them.

Experiments:
MDA-MB-468 [1] = conditions: 72 h
Summary of the method: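 Breast cancer cell lines in 20 µl suspension were added to 384-well plates already holding compound at 5 concentrations, spaced in 10-fold steps across a compound-specific 10,000-fold range, and incubated for 72 h. CellTox Green fluorescence (485/520 nm) was read first to measure cell death, followed by CellTiter-Glo luminescence for viability after 10 min at room temperature. Each plate was normalised to 0.1 % DMSO and a positive kill control. EC50 values came from dose-response curve fits and were censored at the top concentration.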

CAL-51 [2] = assay: normalised response (% of control), CellTox Green; higher = less cell death (100 = DMSO, 0 = benzethonium chloride kill control); conditions: incubation time: 72 h
Summary of the method: (§1)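 Every value is a normalised signal taken at one concentration of a dilution series. Compound was placed in 384-well plates at 5 concentrations in 10-fold steps over a compound-specific 10,000-fold range, and 20 µl of breast cancer cell suspension was seeded onto it. After 72 h, CellTox Green fluorescence (485/520 nm) was measured first and CellTiter-Glo luminescence second, following 10 min at room temperature. Each plate was scaled to 0.1 % DMSO (100) and a positive kill control (0).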

HCC1937 [3] = assay: as above; conditions: incubation time: 72 h
Summary of the method: as §1

MDA-MB-231 [4] = assay: as above; conditions: incubation time: 72 h
Summary of the method: as §1

MFM-223 [5] = assay: as above; conditions: incubation time: 72 h
Summary of the method: as §1

BT-474 = assay: normalised response (% of control), CellTiter-Glo; higher = more viable cells (100 = DMSO, 0 = benzethonium chloride kill control); conditions: incubation time: 72 h
Summary of the method: as §1

BT-549 = assay: as above; conditions: incubation time: 72 h
Summary of the method: as §1

CAL-120 = assay: as above; conditions: incubation time: 72 h
Summary of the method: as §1

CAL-148 = assay: as above; conditions: incubation time: 72 h
Summary of the method: as §1

CAL-51 [6] = assay: as above; conditions: incubation time: 72 h
Summary of the method: as §1

CAL-85-1 = assay: as above; conditions: incubation time: 72 h
Summary of the method: as §1

DU-4475 = assay: as above; conditions: incubation time: 72 h
Summary of the method: as §1

HCC1143 = assay: as above; conditions: incubation time: 72 h
Summary of the method: as §1

HCC1599 = assay: as above; conditions: incubation time: 72 h
Summary of the method: as §1

HCC1937 [7] = assay: as above; conditions: incubation time: 72 h
Summary of the method: as §1

HDQ-P1 = assay: as above; conditions: incubation time: 72 h
Summary of the method: as §1

Hs578T = assay: as above; conditions: incubation time: 72 h
Summary of the method: as §1

MCF-10A = assay: as above; conditions: incubation time: 72 h
Summary of the method: as §1

MDA-MB-231 [8] = assay: as above; conditions: incubation time: 72 h
Summary of the method: as §1

MDA-MB-436 = assay: as above; conditions: incubation time: 72 h
Summary of the method: as §1

MDA-MB-453 = assay: as above; conditions: incubation time: 72 h
Summary of the method: as §1

MDA-MB-468 [9] = assay: as above; conditions: incubation time: 72 h
Summary of the method: as §1

MFM-223 [10] = assay: as above; conditions: incubation time: 72 h
Summary of the method: as §1

SK-BR-3 = assay: as above; conditions: incubation time: 72 h
Summary of the method: as §1

Structure (SMILES): N#Cc1ccc(COC[C@H]2O[C@@H](n3c(NCc4ccc(Cl)c(Cl)c4)nc4c(N)ncnc43)[C@H](O)[C@@H]2O)cc1
- EC50, CellTiter-Glo (MDA-MB-468 [1]): 2270 nM

Structure (SMILES): COc1cc(O)c2c(c1)/C=C/C[C@H](O)[C@H](O)C(=O)/C=C\C[C@H](C)OC2=O [(5Z)-7-Oxozeaenol]
- EC50, CellTiter-Glo (MDA-MB-468 [1]): 953 nM

Structure (SMILES): COc1cc(OC2CCN(C)CC2)ccc1Nc1ncc2c(n1)n(C1CCCC1)c(=O)n2C [AZ 3146]
- EC50, CellTiter-Glo (MDA-MB-468 [1]): 6650 nM

Structure (SMILES): CNC(=O)c1cccc(-c2ccc3c(N4CCOC[C@@H]4C)nc(N4CCOC[C@@H]4C)nc3n2)c1 [AZD2014]
- EC50, CellTiter-Glo (MDA-MB-468 [1]): 497 nM

Structure (SMILES): O=C(/C=C/c1cccc(S(=O)(=O)Nc2ccccc2)c1)NO [Belinostat]
- EC50, CellTiter-Glo (MDA-MB-468 [1]): 410 nM

Structure (SMILES): Nc1cc(C(F)(F)F)c(-c2cc(N3CCOCC3)nc(N3CCOCC3)n2)cn1 [Buparlisib]
- EC50, CellTiter-Glo (MDA-MB-468 [1]): 2710 nM

Structure (SMILES): CCOC(=O)CCNc1cc(N2CCc3ccccc3CC2)nc(-c2ccccn2)n1 [GSK-J4]
- EC50, CellTiter-Glo (MDA-MB-468 [1]): 1890 nM

Structure (SMILES): Cc1cc(Nc2cc(CN3CCOCC3)c3nc(C)c(Cc4ccc(Cl)cc4F)n3n2)n[nH]1 [Gandotinib]
- EC50, CellTiter-Glo (MDA-MB-468 [1]): 711 nM

Structure (SMILES): COc1cc2ncnc(Nc3ccc(F)c(Cl)c3)c2cc1OCCCN1CCOCC1 [Gefitinib]
- EC50, CellTiter-Glo (MDA-MB-468 [1]): 2800 nM

Structure (SMILES): O=C(Nc1ccncc1)C(=O)c1cn(Cc2ccc(Cl)cc2)c2ccccc12 [Indibulin]
- EC50, CellTiter-Glo (MDA-MB-468 [1]): 273 nM

Structure (SMILES): NC(=O)c1ccc(I)c([N+](=O)[O-])c1 [Iniparib]
- EC50, CellTiter-Glo (MDA-MB-468 [1]): 230 nM

Structure (SMILES): COCC[n+]1c2c(n(Cc3cnccn3)c1C)C(=O)c1ccccc1C2=O [YM155] (10000 nM)
- normalised response (CAL-51 [2]): 8.9%
- normalised response (HCC1937 [3]): 1.09%
- normalised response (MDA-MB-231 [4]): 29.1%
- normalised response (MFM-223 [5]): 25.7%
- normalised response (BT-474): 1.71%
- normalised response (BT-549): -0.36%
- normalised response (CAL-120): -0.38%
- normalised response (CAL-148): -0.38%
- normalised response (CAL-51 [6]): -0.12%
- normalised response (CAL-85-1): -0.28%
- normalised response (DU-4475): -0.36%
- normalised response (HCC1143): -0.39%
- normalised response (HCC1599): -0.77%
- normalised response (HCC1937 [7]): 0.28%
- normalised response (HDQ-P1): 1.64%
- normalised response (Hs578T): -0.62%
- normalised response (MCF-10A): -0.72%
- normalised response (MDA-MB-231 [8]): -0.19%
- normalised response (MDA-MB-436): -0.62%
- normalised response (MDA-MB-453): -0.58%
- normalised response (MDA-MB-468 [9]): -0.19%
- normalised response (MFM-223 [10]): 5.6%
- normalised response (SK-BR-3): -0.43%

The next lines start with the values.

- EC50, CellTiter-Glo (MDA-MB-468 [1]): 1620 nM
Structure (SMILES): CCc1c2c(nc3ccc(OC(=O)N4CCC(N5CCCCC5)CC4)cc13)-c1cc3c(c(=O)n1C2)COC(=O)[C@]3(O)CC [Irinotecan]

- EC50, CellTiter-Glo (MDA-MB-468 [1]): 2290 nM
Structure (SMILES): Cc1ccc(NC(=O)c2ccc(CN3CCN(C)CC3)cc2)cc1Nc1nc(-c2cccnc2)cs1 [Masitinib]

- EC50, CellTiter-Glo (MDA-MB-468 [1]): 3360 nM
Structure (SMILES): COC(=O)c1ccc2c(c1)NC(=O)/C2=C(\Nc1ccc(N(C)C(=O)CN2CCN(C)CC2)cc1)c1ccccc1 [Nintedanib]

- EC50, CellTiter-Glo (MDA-MB-468 [1]): 2500 nM
Structure (SMILES): O=C(Nc1cccnc1)N1CCC(Cc2cccc(Oc3ccc(C(F)(F)F)cn3)c2)CC1 [PF-3845]

- EC50, CellTiter-Glo (MDA-MB-468 [1]): 39 nM
Structure (SMILES): Cc1[nH]c2ccccc2c1CCNCc1ccc(/C=C/C(=O)NO)cc1 [Panobinostat]

- EC50, CellTiter-Glo (MDA-MB-468 [1]): 6340 nM
Structure (SMILES): CNC(=O)c1cc(Oc2ccc(NC(=O)Nc3ccc(Cl)c(C(F)(F)F)c3)c(F)c2)ccn1 [Regorafenib]

- EC50, CellTiter-Glo (MDA-MB-468 [1]): 0.33 nM
Structure (SMILES): CO[C@H]1C[C@@H]2CC[C@@H](C)[C@@](O)(O2)C(=O)C(=O)N2CCCC[C@H]2C(=O)O[C@H]([C@H](C)C[C@@H]2CC[C@@H](OP(C)(C)=O)[C@H](OC)C2)CC(=O)[C@H](C)/C=C(\C)[C@@H](O)[C@@H](OC)C(=O)[C@H](C)C[C@H](C)/C=C/C=C/C=C/1C [Ridaforolimus]

- EC50, CellTiter-Glo (MDA-MB-468 [1]): 2280 nM
Structure (SMILES): c1ccc2c(CCNc3ccc(Nc4ccncc4)cc3)c[nH]c2c1 [Serdemetan]

- EC50, CellTiter-Glo (MDA-MB-468 [1]): 75.6 nM
Structure (SMILES): CC(C)C[C@@H](C(=O)N[C@H](C(=O)OC1CCCC1)c1ccccc1)[C@H](O)C(=O)NO [Tosedostat]

- EC50, CellTiter-Glo (MDA-MB-468 [1]): 2050 nM
Structure (SMILES): COc1cc2c(NC3CCN(C(C)C)CC3)nc(N3CCC(F)(F)CC3)nc2cc1OCCCN1CCCC1 [UNC0642]

- EC50, CellTiter-Glo (MDA-MB-468 [1]): 7.82 nM
Structure (SMILES): COc1cc2/c(=N/c3ccc(Br)cc3F)nc[nH]c2cc1OCC1CCN(C)CC1 [Vandetanib]

- EC50, CellTiter-Glo (MDA-MB-468 [1]): 3.73 nM
Structure (SMILES): COCC[n+]1c2c(n(Cc3cnccn3)c1C)C(=O)c1ccccc1C2=O [YM155]
